Measured values: patent publication US20220204456A1, “COMPOUND FOR TREATING AUTOIMMUNE SKIN DISEASES CAUSED BY INFLAMMATION, AND USE THEREOF” (GenEros Biopharma Ltd., priority 2019, published 2022)
Entries after “also recorded” stand apart in the source; their conditions may differ.

Legend:
[1] = Animal body weight in psoriasis model, Example 1; format: in vivo, BALB/c mice; conditions: for Statistical significance analysis of body weight: vs vehicle control group, t-test, DEX cream 70 mg external
Protocol: (§1) Female BALB/c mice (purchased from Shanghai SLACK Laboratory Animal Co., Ltd, administered at 6 weeks of age) were randomly divided into groups after adapting to the environment. Except for the normal control group, the rest of the animals received imiquimod ointment (5%) externally to induce the establishment of a psoriasis model. Specifically, the mice were shaved off same area of the back hair and applied with 62.5 mg of imiquimod ointment daily for seven consecutive days. Animals received different treatment programs, weighed daily, orally or externally applied with drugs once, and recorded with disease progression score.
(§2) Both the vehicle control group and the Nib1 treatment group received oral gavage of the same volume of drugs, formulated with 30% PEG300, and the Nib1 group was given a dose of 10 mg/kg. Dexamethasone ointment was used as a positive treatment drug and received 70 mg smear treatment once a day. The disease progression score is evaluated on a scale of 0-4 based on three indicators, rash, peeling, and thickening (0: no symptoms; 1: mild symptoms; 2: moderate symptoms; 3: significant symptoms; 4: very significant symptoms). At the end of the experiment, the animals were sacrificed, and pathological section analysis was performed on the skin samples of the back lesions.

psoriasis model [2] = experiment: Clinical scoring (rash, peeling, thickening) in imiquimod-induced psoriasis model, Example 1; format: in vivo, BALB/c mice; conditions: for statistical significance analysis of rash scores / statistical significance analysis of skin thickening scores / statistical significance analysis of total clinical scores / statistical significance analysis of peeling scores: vs vehicle control group, t-test, Nib1 10 mg/kg oral, DEX cream 70 mg external
Protocol: as §1, §2
The clinical scoring of three indicators including skin rash, peeling and thickening were recorded and shown as statistical average value and ±standard error by day.

[3] = Animal body weight in psoriasis model, Example 2 (external application); format: in vivo, BALB/c mice; conditions: 70 mg external once a day for 7 days
Protocol: After adapting to the environment, female BALB/c mice were randomly divided into groups. Except for the normal control group, the rest received external treatment with imiquimod ointment (5%) to induce the establishment of a psoriasis model. Specifically, the mice were shaved off the same area (2×3 cm) of back hair and applied with 62.5 mg ointment daily for seven consecutive days. The animals received different treatments, weighed daily, received 70 mg smear treatment once, and recorded with disease progression score. The disease progression score is evaluated on a scale of 0-4 based on three indicators, rash, peeling, and thickening (0: no symptoms; 1: mild symptoms; 2: moderate symptoms; 3: significant symptoms; 4: very significant symptoms). At the end of the experiment, the animals were sacrificed, and pathological section analysis was performed on the skin samples of the back lesions.

[4] = J Neurol Neurosurg Psychiatry 1986;49:791-795; cited from earlier work
psoriasis model [5] = experiment: Pathological section analysis and scoring of back lesion skin, Example 1; format: in vivo, BALB/c mice; conditions: Nib1 10 mg/kg oral
Protocol: as §2
The pathological sections of animal skin were stained with eosin. Three samples were selected for each group.

[6] = Nib1 10 mg/kg oral once a day, vs model group

SMILES: C[C@@H]1C[C@H]2[C@@H]3CCC4=CC(=O)C=C[C@]4(C)[C@@]3(F)[C@@H](O)C[C@]2(C)[C@@]1(O)C(=O)CO [DEX, Dexamethasone]
- body weights of the animals ([1]; Example 1, 7 days, Nib1 10 mg/kg oral, dexamethasone ointment 70 mg topical, once a day): significantly reduced
- Statistical significance analysis of body weight ([1]; day 1, Nib1 10 mg/kg oral): * (* p < 0.05)
- Statistical significance analysis of body weight ([1]; day 4, Nib1 10 mg/kg oral): * (* p < 0.05)
- Statistical significance analysis of body weight ([1]; day 5, Nib1 10 mg/kg oral): ** (** p < 0.01)
- Statistical significance analysis of body weight ([1]; day 6, Nib1 10 mg/kg oral): **** (**** p < 0.0001)
- Statistical significance analysis of body weight ([1]; day 7, Nib1 10 mg/kg oral): **** (**** p < 0.0001)
- statistical significance analysis of rash scores (psoriasis model [2]; day 1): ** (** p < 0.01)
- statistical significance analysis of skin thickening scores (psoriasis model [2]; day 1): **** (**** p < 0.0001)
- statistical significance analysis of total clinical scores (psoriasis model [2]; day 1): **** (**** p < 0.0001)
- statistical significance analysis of rash scores (psoriasis model [2]; day 2): **** (**** p < 0.0001)
- statistical significance analysis of skin thickening scores (psoriasis model [2]; day 2): **** (**** p < 0.0001)
- statistical significance analysis of total clinical scores (psoriasis model [2]; day 2): **** (**** p < 0.0001)
- statistical significance analysis of peeling scores (psoriasis model [2]; day 3): **** (**** p < 0.0001)
- statistical significance analysis of rash scores (psoriasis model [2]; day 3): **** (**** p < 0.0001)
- statistical significance analysis of skin thickening scores (psoriasis model [2]; day 3): **** (**** p < 0.0001)
- statistical significance analysis of total clinical scores (psoriasis model [2]; day 3): **** (**** p < 0.0001)
- statistical significance analysis of peeling scores (psoriasis model [2]; day 4): **** (**** p < 0.0001)
- statistical significance analysis of rash scores (psoriasis model [2]; day 4): **** (**** p < 0.0001)
- statistical significance analysis of skin thickening scores (psoriasis model [2]; day 4): **** (**** p < 0.0001)
- statistical significance analysis of total clinical scores (psoriasis model [2]; day 4): **** (**** p < 0.0001)
- statistical significance analysis of peeling scores (psoriasis model [2]; day 5): **** (**** p < 0.0001)
- statistical significance analysis of rash scores (psoriasis model [2]; day 5): **** (**** p < 0.0001)
- statistical significance analysis of skin thickening scores (psoriasis model [2]; day 5): **** (**** p < 0.0001)
- statistical significance analysis of total clinical scores (psoriasis model [2]; day 5): **** (**** p < 0.0001)
- statistical significance analysis of peeling scores (psoriasis model [2]; day 6): **** (**** p < 0.0001)
- statistical significance analysis of rash scores (psoriasis model [2]; day 6): **** (**** p < 0.0001)
- statistical significance analysis of skin thickening scores (psoriasis model [2]; day 6): **** (**** p < 0.0001)
- statistical significance analysis of total clinical scores (psoriasis model [2]; day 6): **** (**** p < 0.0001)
- statistical significance analysis of peeling scores (psoriasis model [2]; day 7): *** (*** p < 0.001)
- statistical significance analysis of rash scores (psoriasis model [2]; day 7): **** (**** p < 0.0001)
- statistical significance analysis of skin thickening scores (psoriasis model [2]; day 7): **** (**** p < 0.0001)
- statistical significance analysis of total clinical scores (psoriasis model [2]; day 7): **** (**** p < 0.0001)
- weight loss [3]: more than 25%

SMILES: O=c1[nH]c2ccccc2n1C1CCN(CCCC(c2ccc(F)cc2)c2ccc(F)cc2)CC1 [Nib1, Pimozide]
- toxic and side effect (judged from body weight) ([1]; mouse, in vivo, po, 10 mg/kg): significantly less than that of dexamethasone
- systemic risks on long-term use [4]: has not shown systemic risks
- remission by area under the clinical total score curve (AUC) (psoriasis model [2]; Nib1 10 mg/kg oral once a day for 7 days, compared with the disease model group): 32.2%
- total score of the three clinical indicators (psoriasis model [2]; Nib1 10 mg/kg oral once a day, vs disease model group, 10 mg/kg): significantly lower clinical symptoms than the disease model group; also recorded: significantly reduce the clinical symptoms of psoriasis
- peeling clinical score (psoriasis model [2]; [6]): significantly reduce the peeling phenomenon
- skin thickening clinical score (psoriasis model [2]; [6]): significantly reduced on the 4th, 5th, and 6th days
- rash clinical score (psoriasis model [2]; Nib1 10 mg/kg oral once a day, vs model group, significantly different in the first three days): slightly reduced rash
- statistical significance analysis of rash scores (psoriasis model [2]; day 1): **** (**** p < 0.0001)
- statistical significance analysis of skin thickening scores (psoriasis model [2]; day 1): ** (** p < 0.01)
- statistical significance analysis of total clinical scores (psoriasis model [2]; day 1): **** (**** p < 0.0001)
- statistical significance analysis of rash scores (psoriasis model [2]; day 2): * (* p < 0.05)
- statistical significance analysis of total clinical scores (psoriasis model [2]; day 2): ** (** p < 0.01)
- statistical significance analysis of peeling scores (psoriasis model [2]; day 3): *** (*** p < 0.001)
- statistical significance analysis of rash scores (psoriasis model [2]; day 3): ** (** p < 0.01)
- statistical significance analysis of skin thickening scores (psoriasis model [2]; day 3): * (* p < 0.05)
- statistical significance analysis of total clinical scores (psoriasis model [2]; day 3): **** (**** p < 0.0001)
- statistical significance analysis of peeling scores (psoriasis model [2]; day 4): *** (*** p < 0.001)
- statistical significance analysis of skin thickening scores (psoriasis model [2]; day 4): *** (*** p < 0.001)
- statistical significance analysis of total clinical scores (psoriasis model [2]; day 4): **** (**** p < 0.0001)
- statistical significance analysis of peeling scores (psoriasis model [2]; day 5): **** (**** p < 0.0001)
- statistical significance analysis of skin thickening scores (psoriasis model [2]; day 5): *** (*** p < 0.001)
- statistical significance analysis of total clinical scores (psoriasis model [2]; day 5): *** (*** p < 0.001)
- statistical significance analysis of peeling scores (psoriasis model [2]; day 6): ** (** p < 0.01)
- statistical significance analysis of skin thickening scores (psoriasis model [2]; day 6): ** (** p < 0.01)
- statistical significance analysis of total clinical scores (psoriasis model [2]; day 6): ** (** p < 0.01)
- pathological section findings (epidermal hyperplasia, immune cell infiltration) (psoriasis model [5]; stained skin sections, 100x): improve epidermal hyperplasia and reduce immune cell infiltration
- remission effect by pathological section score (psoriasis model [5]; scoring system of Table 2, p<0.01 vs vehicle control, one-way ANOVA): 32.5%
